SMILES strings stand for the structures.

The assay can be described thus: Ion flotation of uranium from Monument Valley groundwater with rhamnolipid collectors. An excerpt: Groundwater Collection and Analysis: The Monument Valley site is in Cane Valley, AZ, which is in northeastern Arizona. Groundwater was collected from monitoring well 662, which is down gradient of the source zone within the boundaries of the uranium groundwater plume. Samples were collected using dedicated bladder pumps and a QED Micropurge Controller. Groundwater was collected into a 50 L LDPE carboy (Thermo Scientific Nalgene) after the groundwater's pH and dissolved oxygen levels from the pump stabilized. The solution was stored as received, on the lab bench at ambient temperature until use.
For cation and anion analysis, groundwater was filtered ([…]) then diluted with 2% trace metals grade nitric acid (Fisher Scientific, Waltham, MA) in metal-free polypropylene 15 mL centrifuge tubes (VWR, Radnor, PA). Cations were analyzed using an Elan DRC-II inductively coupled plasma mass spectrometer (ICP-MS). Anions (F^−1, Cl^−1, Br^−1, NO2^−1, NO3^−1, […], and SO4^−2) were analyzed by using a Thermo Scientific Dionex ICS-6000 high-performance ion chromatography system. Data generated in this geochemical analysis were used to model uranium speciation using Visual MINTEQ 3.1. Only major solution constituents—those greater than 10 μg L^−1 for metals or 5 μmol L^−1 for anions—were included in the experiment, and carbonates were excluded because they are stripped from solution when nitrogen is sparged in the flotation process.
Chemicals: Both biosynthetic and synthetic monorhamnolipid collectors were tested for flotation efficiency. Biosynthetic monorhamnolipid tail lengths ‘m’ and ‘n’ range from 4 to 12 due to natural congener variation. Synthetic monorhamnolipids (Rha-C10-C10, Rha-C12-C12, or Rha-C14-C14) were synthesized with equal length tails where ‘m’=‘n’=6-14. The production and purification of biosynthetic monorhamnolipids (bio-mRL) from Pseudomonas aeruginosa ATCC 9027 has been previously described by Hogan et al., J. Hazard. Mater. 2017, 340, pp. 171-178. This organism exclusively produces monorhamnolipids—rhamnolipids with a single rhamnose sugar in the hydrophilic moiety of the molecule—as a congener mixture with varying hydrophobic tail lengths, in which the rhamnosyl-β-hydroxydecanoyl-β-hydroxydecanoate (C10-C10) dominates at 75-85 wt %. A molecular weight of 504 g mol^−1 (based on the C10-C10 structure) was used to estimate the bio-mRL concentration. Synthetic monorhamnolipids with decyl (Rha-C10-C10), dodecyl (Rha-C12-C12), and tetradecyl (Rha-C14-C14) hydrophobic moieties were prepared for comparative experiment. The molecular weights of the synthetic monorhamnolipids are 504.7, 560.8, and 616.9, respectively. All solutions were made using nanopure water (≥18 MΩ-cm). pH was adjusted with HNO3 and NaOH. […]

In the case of `CCCCCCCCCC(CC(=O)O)OC(=O)CC(CCCCCCCCC)OC1O[C@@H](C)[C@H](O)[C@@H](O)[C@H]1O` (stereo partly drawn) [Rha C12C12, rhamnosyl-β-hydroxydodecanoyl-62-hydroxydodecanoate], the uranium removal entry reads like this: (native pH 8) “did not collect metals”; (pH 7) “No significant amount of uranium was removed”. The compound further came in with a uranium removal percentage (pH 6.5) of 6.6%.

Values taken from patent publication US20240182513A1, “SEPARATION OF METAL IONS FROM A SAMPLE USING GLYCOLIPIDS” (ARIZONA BOARD OF REGENTS ON BEHALF OF THE UNIVERSITY OF …, priority 2021, published 2024).
